The results in this text go back to paper PMC5931690, “SmSP2: A serine protease secreted by the blood fluke pathogen Schistosoma mansoni with anti-hemostatic properties” (PLoS Neglected Tropical Diseases, 2018).

*1 amine or outer side, *2 acyl side, *3 side chain or, on linkers, in order; H or OH if unused. Where a SMILES comes first, the peptide text is derived from it. CO = O=C([*:1])[*:2]

The test addresses T1, rSmSP2 (SmSP2, serine protease 2; recombinant protease domain) (Schistosoma mansoni, UniProt V5UMR3).
T1 construct: gene SP2; about 28 kDa on SDS-PAGE, active form
Briefly: fluorogenic kinetic assay, residual P-F-R-AMC hydrolysis. Format: biochemical. The text has this: fluorogenic kinetic assay, residual P-F-R-AMC hydrolysis on rSmSP2 (SmSP2, serine protease 2; recombinant protease domain)

T1 sequence (V5UMR3 entry or part of it): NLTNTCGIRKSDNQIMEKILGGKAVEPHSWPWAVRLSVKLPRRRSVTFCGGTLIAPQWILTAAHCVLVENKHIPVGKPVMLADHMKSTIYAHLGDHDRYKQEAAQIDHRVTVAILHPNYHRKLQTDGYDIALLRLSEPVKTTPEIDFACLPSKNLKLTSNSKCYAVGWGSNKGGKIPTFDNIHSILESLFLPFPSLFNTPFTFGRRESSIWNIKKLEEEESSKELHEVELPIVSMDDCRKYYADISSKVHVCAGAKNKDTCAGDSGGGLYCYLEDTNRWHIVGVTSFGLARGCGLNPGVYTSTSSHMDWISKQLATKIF

As for `N=C(N)c1ccccc1` [Benzamidine], the inhibition at 1000 µM (read-out: Concentration) turned out to be 100%.

`CC(=O)N[C@@H](CC(C)C)C(=O)N[C@@H](CC(C)C)C(=O)N[C@H](C=O)CCCNC(=N)N` [Leupeptin, N-acetyl-L-leucyl-L-leucyl-L-argininal]: for the setting “read-out: Inhibition (%)^c”, the inhibition at 20 µM came to 100%.

Take `O=c1oc(Cl)c(Cl)c2ccccc12`: for the setting “read-out: Inhibition (%)^c”, the inhibition at 100 µM was 71.4 ± 3.3%.

As for `CC(C)[C@H](NC(=O)[C@H](CCCNC(=N)N)NC(=O)N[C@@H](Cc1ccccc1)C(=O)O)C(=O)N[C@H](C=O)CCCNC(=N)N` [Antipain] ({Phe-CO}-Arg-Val-Arg-aldehyde), the inhibition at 20 µM (read-out: Inhibition (%)^c) came to 100%.

Take `NCCc1ccc(S(=O)(=O)F)cc1` [Pefabloc SC]: for the setting “1000 µM, 50 μM P-F-R-AMC, 0.1 M Tris-HCl pH 8.0, 37 °C, 10 min preincubation, covalent”, the percent inhibition turned out to be 100%.
